Measured values taken from article PMC7787731, “Synthesis and Characterization of New Dihydronaphthalene Candidates as Potent Cytotoxic Agents against MCF-7 Human Cancer Cells” (BioMed Research International, 2020).
Like-named read-outs stand apart in the source and are kept apart here.

Assays:
[1] = system: MCF-7 (human breast adenocarcinoma) cell lines; experiment: In vitro cytotoxicity MTT assay against breast cancer MCF-7 cells
Procedure: Both MCF-7 and MCF10A cells were purchased from American Type Culture Collection (ATCC). Cells were grown in DMEM culture medium (Invitrogen/Life Technologies) supplemented with 10% FBS (Hyclone, USA), 10 μg/mL insulin (Sigma), and 1% penicillin-streptomycin antibiotic solution. Chemicals used were of cell culture grade and were purchased from Sigma or Invitrogen. Prior to the assay, cells (cells density 1.2–1.8 × 10,000 cells/well) were plated in 96-well plate with 100 μL medium and were allowed to grow for 24 h.
In vitro cytotoxic activity of the prepared compounds against breast (MCF-7) cancer cells was assessed using MTT assay [24, 25]. The assay depends on the mitochondrial reduction of the colorless 3-(4,5-methyl-2-thiazolyl)-2,5-diphenyl-2H-tetrazolium bromide (MTT) within viable cells into a dark blue formazan product. […] The supernatant was taken away from each well, and 100 μL of DMSO was added to each well to dissolve the formazan crystals. After mixing with a mechanical plate mixer, a microplate reader was used to measure the absorbance of each well at a wavelength of 570 nm. […] IC50 values were calculated from the linear regression of the corresponding calibration curves using the Origin® 6.1 software.
Results were analyzed with the help of SPSS 9.0 and were presented as mean ± SD of three replicates. The mean comparison between different evaluated groups was performed using ANOVA one-way analysis of variance. Statistical significance was defined when p < 0.05.

[2] = system: normal epithelial breast cells (MCF10A); experiment: In vitro cytotoxicity MTT assay against normal breast MCF10A cells; assay type: cell-based; conditions: for IC50: Homo sapiens, MCF-10A, MTT assay, normal breast cell line, mean ± SD of three replicates
Text: Statistical significance was defined when p < 0.05.

[3] = Homo sapiens, MCF7, 72 h, read-out: IC50 (μM) MCF-7, MTT assay, 0.39-100 μM, 3 days, mean ± SD of three replicates

Structure (SMILES) | melting point [°C] | IC50 [1, 3] [µM] | decrease in cytotoxicity relative to N-ethyl thiourea derivative 3d ([1]; MCF-7, N-4-bromophenyl versus N-ethyl substitution) | IC50 [2] [µM] | less toxic than Saturosporin towards MCF01A normal cells ([2]; compared with Saturosporin as worded) | IC50 ([1]; read-out: IC50 (μM) MCF-7, MTT assay, 0.39-100 μM, 3 days, mean ± SD of three replicates) [µM]
COc1ccc2c(c1)CCCC2=NNC(=S)Nc1ccc(Br)cc1 [Compound 3a, N-(4-Bromophenyl)-2-(6-methoxy-3,4-dihydronaphthalen-1(2H)-ylidene)hydrazine-1-carbo thioamide] | 191 to 193 | 12.7 ± 0.33 | more than 3 times | 35.4 ± 0.64 |  | 
COc1ccc2c(c1)CCCC2=NNC(=S)Nc1ccc(F)cc1 [Compound 3b, N-(4-Fluorophenyl)-2-(6-methoxy-3,4-dihydronaphthalen-1(2H)-ylidene)hydrazine-1-carbo thioamide] | 154 to 156 |  |  |  |  | 
COc1ccc2c(c1)CCCC2=NNC(=S)Nc1ccc(Oc2ccccc2)cc1 [Compound 3c, 2-(6-Methoxy-3,4-dihydronaphthalen-1(2H)-ylidene)-N-(4-phenoxyphenyl)-hydrazine-1-carbo thioamide] | 171 |  |  |  |  | 
CCNC(=S)NN=C1CCCc2cc(OC)ccc21 [Compound 3d, N-(4-Ethyl)-2-(6-methoxy-3,4-dihydronaphthalen-1(2H)-ylidene)hydrazine-1-carbothioamide] | 150 to 153 | 3.73 ± 0.09 |  | 19.7 ± 0.51 |  | 
COc1ccc2c(c1)CCCC2=NN1C(=O)CSC1=Nc1ccc(Br)cc1 [Compound 4a, 2-((4-Bromophenyl)imino)-3-((6-methoxy-3,4-dihydronaphthalen-1(2H)-ylidene)amino) thiazolidin-4-one] | 183 | 28.6 ± 0.74 |  | 68 ± 0.86 |  | 
COc1ccc2c(c1)CCCC2=NN1C(=O)CSC1=Nc1ccc(F)cc1 [Compound 4b, 2-((4-Fluorophenyl)imino)-3-((6-methoxy-3,4-dihydronaphthalen-1(2H)-ylidene)amino) thiazolidin-4-one] | 190 | 10.2 ± 0.26 |  | 29.2 ± 0.36 |  | 
COc1ccc2c(c1)CCCC2=NN1C(=O)CSC1=Nc1ccc(Oc2ccccc2)cc1 [Compound 4c, 3-((6-Methoxy-3,4-dihydronaphthalen-1(2H)-ylidene)amino)-2-((4-phenoxyphenyl)imino) thiazolidin-4-one] | 171 |  |  |  |  | 
CCN=C1SCC(=O)N1N=C1CCCc2cc(OC)ccc21 [Compound 4d, 2-(Ethylimino)-3-((6-methoxy-3,4-dihydronaphthalen-1(2H)-ylidene)amino)thiazolidin-4-one] | 117 | 10.1 ± 0.26 |  | 30.7 ± 0.53 |  | 
COc1ccc2c(c1)CCCC2=NN1C(=O)C(=CN(C)C)SC1=Nc1ccc(Br)cc1 [Compound 6, 2-((4-Bromophenyl)imino)-5-((dimethylamino)methylene)-3-((6-methoxy-3,4-dihydronaphthalene-1(2H)-ylidene)amino)thiazolidin-4-one] | 236 | 7.48 ± 0.19 |  | 17.78 ± 0.16 |  | 
CCOC(=O)c1cc2sc(=Nc3ccc(Br)cc3)n(N=C3CCCc4cc(OC)ccc43)c2nc1C [Compound 7, Ethyl-2-((4-bromophenyl)imino)-3-((6-methoxy-3,4-dihydronaphthalen-1(2H)-ylidene)amino)-5-methyl-2,3-dihydrothiazolo [4,5-b]pyridine-6-carboxylate] | 90 |  |  |  |  | 
COc1ccc2c(c1)CCC/C2=N\n1/c(=N/c2ccc(Br)cc2)sc2cc(C(C)=O)c(C)nc21 [Compound 8] | 128 | 20 |  | 43.7 ± 0.59 |  | 20 ± 0.52
COc1ccc2c(c1)CCCC2=Nn1c(=Nc2ccc(Br)cc2)sc2cc(C#N)c(=O)[nH]c21 [Compound 9, 2-((4-Bromophenyl)imino)-3-((6-methoxy-3,4-dihydronaphthalen-1(2H)-ylidene)amino)-5-oxo-2,3,4,5-tetrahydrothiazolo [4,5-b]pyridine-6-carbonitrile] | 224 |  |  |  |  | 
COc1ccc2c(c1)CCCC2=Nn1c(=Nc2ccc(Br)cc2)sc2cc(C#N)c(=S)[nH]c21 [Compound 10, 2-((4-Bromophenyl)imino)-3-((6-methoxy-3,4-dihydronaphthalen-1(2H)-ylidene)amino)-5-thioxo-2,3,4,5-tetrahydrothiazolo [4,5-b]pyridine-6-carbonitrile] | 286 | 2.83 ± 0.07 |  | 15 ± 0.39 |  | 
COc1ccc2c(c1)CCCC2=NN1C(=O)C(=CNc2nc3ccccc3[nH]2)SC1=Nc1ccc(Br)cc1 [Compound 11, 5-((1H-Benzo [d]imidazol-2-ylamino)methylene)-2-(4-bromophenylimino)-3-((6-methoxy-3,4-dihydronaphthalen-1(2H)-ylidene)amino)thiazolidin-4-one] | 220 |  |  |  |  | 
COc1ccc2c(c1)CCCC2=NN1C(=O)C(=CNc2nccs2)SC1=Nc1ccc(Br)cc1 [Compound 12, 2-(4-Bromophenylimino)-3-((6-methoxy-3,4-dihydronaphthalen-1(2H)-ylidene)amino)-5-((thiazol-2-ylamino)methylene)thiazolidin-4-one] | 152 |  |  |  |  | 

Second part, led by results:

melting point [°C] | Structure (SMILES) | IC50 [1, 3] [µM] | decrease in cytotoxicity relative to N-ethyl thiourea derivative 3d ([1]; MCF-7, N-4-bromophenyl versus N-ethyl substitution) | IC50 [2] [µM] | less toxic than Saturosporin towards MCF01A normal cells ([2]; compared with Saturosporin as worded) | IC50 ([1]; read-out: IC50 (μM) MCF-7, MTT assay, 0.39-100 μM, 3 days, mean ± SD of three replicates) [µM]
247 | COc1ccc(C2C(C#N)=C(N)Oc3c2sc(=Nc2ccc(Br)cc2)n3N=C2CCCc3cc(OC)ccc32)cc1 (stereo not drawn) [Compound 5a, 5-Amino-2-((4-bromophenyl)imino)-3-((6-methoxy-3,4-dihydronaphthalen-1(2H)-ylidene)amino)-7-(4-methoxyphenyl)-3,7-dihydro-2H-pyrano [2,3-d]thiazole-6-carbonitrile] | 0.93 ± 0.02 |  | 17.2 ± 0.44 | about 18.45 folds | 
213 | COc1ccc2c(c1)CCCC2=Nn1c2c(sc1=Nc1ccc(Br)cc1)C(c1ccc([N+](=O)[O-])cc1)C(C#N)=C(N)O2 (stereo not drawn) [Compound 5b, 5-Amino-2-((4-bromophenyl)imino)-3-((6-methoxy-3,4-dihydronaphthalen-1(2H)-ylidene)amino)-7-(4-nitrophenyl)-3,7-dihydro-2H-pyrano [2,3-d]thiazole-6-carbonitrile] |  |  |  |  | 
209 | COc1ccc(C2C(C#N)=C(N)Oc3c2sc(=Nc2ccc(Oc4ccccc4)cc2)n3N=C2CCCc3cc(OC)ccc32)cc1 (stereo not drawn) [Compound 5d, 5-Amino-3-((6-methoxy-3,4-dihydronaphthalen-1(2H)-ylidene)amino)-7-(4-methoxyphenyl) -2-((4-phenoxyphenyl)imino)--3,7-dihydro-2H-pyrano [2,3-d]thiazole-6-carbonitrile] | 1.76 ± 0.04 |  | 16.3 ± 0.42 |  | 
223 | COc1ccc2c(c1)CCCC2=Nn1c2c(sc1=Nc1ccc(Oc3ccccc3)cc1)C(c1ccc([N+](=O)[O-])cc1)C(C#N)=C(N)O2 (stereo not drawn) [Compound 5e, 5-Amino-3-((6-methoxy-3,4-dihydronaphthalen-1(2H)-ylidene)amino)-7-(4-nitrophenyl)-2-((4-phenoxyphenyl)imino)--3,7-dihydro-2H-pyrano [2,3-d]thiazole-6-carbonitrile] | 2.36 ± 0.06 |  | 14.1 ± 0.36 |  | 
280 | COc1ccc2c(c1)CCCC2=Nn1c2c(sc1=Nc1ccc(Oc3ccccc3)cc1)C(c1ccco1)C(C#N)=C(N)O2 (stereo not drawn) [Compound 5f, 5-Amino-7-(furan-2-yl)-3-((6-methoxy-3,4-dihydronaphthalen-1(2H)-ylidene)amino)-2-((4-phenoxyphenyl)imino)-3,7-dihydro-2H-pyrano [2,3-d]thiazole-6-carbonitrile] |  |  |  |  | 
